In this experiment the test system is L1210 leukemia ip in BDF1 mice, survival T/C. Description: NCI In Vivo Anticancer Drug Screen. Data for tumor model L1210 Leukemia (intraperitoneal) in B6D2F1 (BDF1) mice. The conditions noted are these: endpoint: mean survival time, higher = longer survival. The gist of the method: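 Value reflects the ratio of survival in compound-treated mice to survival in vehicle-treated controls, with both groups carrying the same transplanted tumor.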

The mark [1] stands for this setting: dose: 200.0 mg/kg/injection, schedule: Q04DX003 (ip), vehicle: Klucel (hydroxypropylcellulose) (HPC).
[2] abbreviates: dose: 400.0 mg/kg/injection, schedule: Q04DX003 (ip), vehicle: Klucel (hydroxypropylcellulose) (HPC).
The mark [3] stands for this setting: dose: 100.0 mg/kg/injection, schedule: Q04DX003 (ip), vehicle: saline with Tween-80.
The mark [4] stands for this setting: dose: 200.0 mg/kg/injection, schedule: Q04DX003 (ip), vehicle: saline with Tween-80.
Where [5] appears, read: dose: 400.0 mg/kg/injection, schedule: Q04DX003 (ip), vehicle: saline with Tween-80.
The mark [6] stands for this setting: dose: 100.0 mg/kg/injection, schedule: Q04DX002 (ip), vehicle: Klucel (hydroxypropylcellulose) (HPC).
[7] abbreviates: dose: 200.0 mg/kg/injection, schedule: Q04DX002 (ip), vehicle: Klucel (hydroxypropylcellulose) (HPC).
[8] abbreviates: dose: 400.0 mg/kg/injection, schedule: Q04DX002 (ip), vehicle: Klucel (hydroxypropylcellulose) (HPC).
The mark [9] stands for this setting: dose: 100.0 mg/kg/injection, schedule: Q04DX003 (ip), vehicle: Klucel (hydroxypropylcellulose) (HPC).
Setting [10] is: dose: 100.0 mg/kg/injection, schedule: Q04DX002 (ip), vehicle: saline.

Where “and” joins values, the source holds several entries; their conditions need not be identical. Equal values may be shown once. Toxic doses and inconclusive results are not listed.

On to `O=NN(CCCl)C(=O)NC1c2cc(Cl)ccc2-c2c(Cl)cc(Cl)cc21` (stereo unspecified), for which the T/C is, setting by setting: (dose: 6.6 mg/kg/injection, schedule: Q04DX003 (ip), vehicle: Klucel (hydroxypropylcellulose) (HPC)) 103 % of control; (dose: 9.9 mg/kg/injection, schedule: Q04DX003 (ip), vehicle: Klucel (hydroxypropylcellulose) (HPC)) 116 % of control; (dose: 12.5 mg/kg/injection, schedule: Q01DX009 (ip), vehicle: Klucel (hydroxypropylcellulose) (HPC)) 115 % of control; (dose: 20.0 mg/kg/injection, schedule: Q04DX003 (ip), vehicle: Klucel (hydroxypropylcellulose) (HPC)) 102 % of control; (dose: 25.0 mg/kg/injection, schedule: Q01DX009 (ip), vehicle: Klucel (hydroxypropylcellulose) (HPC)) 124 % of control; (dose: 40.0 mg/kg/injection, schedule: Q04DX003 (ip), vehicle: Klucel (hydroxypropylcellulose) (HPC)) 119 % of control. The T/C was 232 % of control (dose: 50.0 mg/kg/injection, schedule: Q01DX009 (ip), vehicle: Klucel (hydroxypropylcellulose) (HPC)); 252 % of control (dose: 100.0 mg/kg/injection, schedule: Q01DX009 (ip), vehicle: Klucel (hydroxypropylcellulose) (HPC)); 154 % of control (dose: 115.0 mg/kg/injection, schedule: Q04DX003 (ip), vehicle: Klucel (hydroxypropylcellulose) (HPC)); 153 % of control (dose: 200.0 mg/kg/injection, schedule: Q01DX001 (ip), vehicle: Klucel (hydroxypropylcellulose) (HPC)); 267 % of control (dose: 200.0 mg/kg/injection, schedule: Q01DX009 (ip), vehicle: Klucel (hydroxypropylcellulose) (HPC)); 174 % of control under setting [1]. Moreover, the T/C (dose: 400.0 mg/kg/injection, schedule: Q01DX001 (ip), vehicle: Klucel (hydroxypropylcellulose) (HPC)) was 170 % of control; the T/C (dose: 400.0 mg/kg/injection, schedule: Q01DX009 (ip), vehicle: Klucel (hydroxypropylcellulose) (HPC)) is 273 % of control; the T/C under setting [2] is 157 % of control and 261 % of control.
For the molecule `O=C1OC(=O)c2c1ccc1ccc(Cl)cc21`, the T/C was 94 % of control under setting [3], 94 % of control under setting [4] and 102 % of control under setting [5].
In the case of `N=C(N)SC12CC3CC(CC(C3)C1)C2`, the T/C runs as follows: (dose: 10.0 mg/kg/injection, schedule: Q04DX002 (ip), vehicle: Klucel (hydroxypropylcellulose) (HPC)) 94 % of control; (dose: 20.0 mg/kg/injection, schedule: Q04DX002 (ip), vehicle: Klucel (hydroxypropylcellulose) (HPC)) 87 % of control; (dose: 40.0 mg/kg/injection, schedule: Q04DX002 (ip), vehicle: Klucel (hydroxypropylcellulose) (HPC)) 94 % of control.
Take `O=NN(CCF)C(=O)NCCF`: the T/C is, setting by setting: (dose: 1.25 mg/kg/injection, schedule: Q01DX001 (ip), vehicle: saline) 113 % of control; (dose: 1.75 mg/kg/injection, schedule: Q01DX001 (ip), vehicle: saline) 118 % of control; (dose: 2.0 mg/kg/injection, schedule: Q01DX001 (ip), vehicle: saline) 116 % of control; (dose: 2.5 mg/kg/injection, schedule: Q01DX001 (ip), vehicle: saline) 118 % of control; (dose: 3.5 mg/kg/injection, schedule: Q01DX001 (ip), vehicle: saline) 161 % of control; (dose: 5.0 mg/kg/injection, schedule: Q01DX001 (ip), vehicle: saline) 156 % of control. Moreover, the T/C is, setting by setting: (dose: 6.0 mg/kg/injection, schedule: Q01DX001 (ip), vehicle: saline) 242 % of control; (dose: 7.0 mg/kg/injection, schedule: Q01DX001 (ip), vehicle: saline) 316 % of control; (dose: 8.0 mg/kg/injection, schedule: Q01DX001 (ip), vehicle: saline) 201 % of control; (dose: 12.0 mg/kg/injection, schedule: Q01DX001 (ip), vehicle: saline) 312 % of control and 333 % of control; (dose: 18.0 mg/kg/injection, schedule: Q01DX001 (ip), vehicle: saline) 322 % of control.
Turning to `CC1CCN1Cc1ccccc1` (stereo unspecified), the T/C (dose: 12.5 mg/kg/injection, schedule: Q04DX003 (ip), vehicle: acetone) is 98 % of control; the T/C (dose: 25.0 mg/kg/injection, schedule: Q04DX003 (ip), vehicle: acetone) was 104 % of control; the T/C (dose: 50.0 mg/kg/injection, schedule: Q04DX003 (ip), vehicle: acetone) is 104 % of control; the T/C (dose: 75.0 mg/kg/injection, schedule: Q01DX009 (ip), vehicle: saline) is 94 % of control.
Take `O=C1NC2(C=CC(Br)CC2)C(=O)C12CCCCC2` (stereo unspecified): the T/C is 104 % of control (dose: 75.0 mg/kg/injection, schedule: Q01DX001 (ip), vehicle: saline); 100 % of control (dose: 150.0 mg/kg/injection, schedule: Q01DX001 (ip), vehicle: saline); 102 % of control (dose: 300.0 mg/kg/injection, schedule: Q01DX001 (ip), vehicle: saline).
For `O=S(=O)(O)c1ccc2cc(O)c(O)cc2c1`, the T/C was 91 % of control under setting [6], 95 % of control under setting [7] and 95 % of control under setting [8].
On to `COc1ccc(NC(=O)O/N=C2\CN(S(=O)(=O)c3ccc(C)cc3)CCc3ccccc32)cc1`, for which the T/C is, setting by setting: under setting [9], 91 % of control; under setting [1], 94 % of control; under setting [2], 96 % of control.
Regarding `NC(C(=O)O)C(C(=O)O)c1ccccc1` (stereo unspecified), the T/C under setting [6] is 101 % of control, the T/C under setting [7] was 101 % of control and the T/C under setting [8] is 93 % of control.
Consider `NNC(=O)CCCCCO`, for which the T/C by setting is: (dose: 100.0 mg/kg/injection, schedule: Q01DX009 (ip), vehicle: saline with Tween-80) 102 % of control; (dose: 200.0 mg/kg/injection, schedule: Q01DX009 (ip), vehicle: saline with Tween-80) 100 % of control; (dose: 400.0 mg/kg/injection, schedule: Q01DX009 (ip), vehicle: saline with Tween-80) 100 % of control.
As to `CSc1nc(Cl)nc(SC)n1`, the T/C is 96 % of control under setting [9], 96 % of control under setting [1] and 96 % of control under setting [2].
As for `Cc1cnc(/C=N/NC(N)=S)cn1`, the T/C is 99 % of control under setting [10]; 96 % of control (dose: 200.0 mg/kg/injection, schedule: Q04DX002 (ip), vehicle: saline); 108 % of control (dose: 400.0 mg/kg/injection, schedule: Q04DX002 (ip), vehicle: saline).
Consider `CCCCCCCCCN1CCCC(OC(=O)N(C)C)C1` (stereo unspecified), for which the T/C by setting is: (dose: 25.0 mg/kg/injection, schedule: Q04DX002 (ip), vehicle: saline) 103 % of control; (dose: 50.0 mg/kg/injection, schedule: Q04DX002 (ip), vehicle: saline) 103 % of control; under setting [10], 100 % of control.
Consider `CCCCNC(=O)C1CC2c3cccc4c3c(cn4C)CC2N(C)C1` (stereo unspecified), for which the T/C was 100 % of control (dose: 3.12 mg/kg/injection, schedule: Q01DX009 (ip), vehicle: saline); 92 % of control (dose: 6.25 mg/kg/injection, schedule: Q01DX009 (ip), vehicle: saline); 100 % of control (dose: 12.5 mg/kg/injection, schedule: Q01DX009 (ip), vehicle: saline); 94 % of control (dose: 25.0 mg/kg/injection, schedule: Q01DX009 (ip), vehicle: saline); 101 % of control (dose: 50.0 mg/kg/injection, schedule: Q01DX009 (ip), vehicle: saline).
In the case of `O=C(NNS(=O)(=O)c1ccccc1)C1Oc2ccccc2O1`, the T/C (dose: 25.0 mg/kg/injection, schedule: Q04DX002 (ip), vehicle: Klucel (hydroxypropylcellulose) (HPC)) was 96 % of control; the T/C (dose: 50.0 mg/kg/injection, schedule: Q04DX002 (ip), vehicle: Klucel (hydroxypropylcellulose) (HPC)) is 93 % of control; the T/C under setting [6] is 101 % of control.
Take `CC12CCC(CC1)C(O)C2` (stereo unspecified): the T/C runs as follows: (dose: 100.0 mg/kg/injection, schedule: Q01DX001 (ip), vehicle: saline with Tween-80) 104 % of control; under setting [3], 97 % of control; (dose: 200.0 mg/kg/injection, schedule: Q01DX001 (ip), vehicle: saline with Tween-80) 101 % of control; under setting [4], 101 % of control; (dose: 400.0 mg/kg/injection, schedule: Q01DX001 (ip), vehicle: saline with Tween-80) 98 % of control; under setting [5], 87 % of control.
As for `c1ccc2c(c1)[nH]c1nc3ccncc3nc12`, the T/C reads like this: (dose: 100.0 mg/kg/injection, schedule: Q04DX003 (ip), vehicle: saline) 103 % of control; (dose: 200.0 mg/kg/injection, schedule: Q04DX003 (ip), vehicle: saline) 94 % of control.

The values above are taken from PubChem BioAssay AID248 (DTP/NCI, 2004).
